# Data published in patent publication US20190015397A1, “SUBSTANCE THAT INHIBITS P2Y12 RECEPTOR, FOR USE IN THE PREVENTIVE TREATMENT OF SYSTEMIC SCLEROSIS IN PATIENTS WITH RAYNAUD'S PHENOMENON AND A DYSIMMUNITY” (UNIVERSITÉ DE BORDEAUX, priority 2016, published 2019).
# “Also recorded” adds a separate entry of the source.
# Key:
# [1] = test system: healthy endothelial cells; test: TSLP production by healthy endothelial cells with platelets treated with acetylsalicylic acid; format: cell-based, human; settings: doses 0, 10 and 1000 pg/ml
# Text: FIG. 8: represents the in vitro TSLP production (pg/ml) by healthy endothelial cells in the presence of platelets from a first healthy non sclerodermic patient a second non sclerodermic patient previously treated with acetylsalicylic acid (aspirin, pg/ml) at a dose of 0, 10 and 1000 pg/ml.
# The endothelial TSLP production is not inhibited by healthy patients platelets treated with acetylsalicylic acid (aspirin active metabolite) (see FIG. 8).
# [2] = test system: mice models of scleroderma; settings: two mice models of scleroderma; cited from earlier work
# [3] = test system: patients with SSc; settings: cited from earlier work
# [4] = test system: bleomycin-injected mice
# [5] = test system: human normal microvascular endothelial cells; test: TSLP secretion by endothelial cells co-incubated with platelets from patients treated by P2Y12 inhibitors; format: cell-based; settings: clopidogrel 75 mg or ticagrelor 90 mg per day; platelets:EC 200:1, 24 hrs, ELISA
# Experimental: FIG. 7: represents TSLP secretion (in pg/ml: A, or in %: B) by endothelial cells after stimulation by, from left to right, platelets from healthy donors (HD, n=6), patients treated by clopidogrel (n=3) or by ticagrelor (n=4). […] Supernatants were harvested and frozen before analysis. TSLP concentration was determined by ELISA.
# Briefly, platelets purified from healthy normal subject, or non-sclerodermic patients treated with clopidogrel (75 mg par jour), or a non-sclerodermic patient treated with ticagrelor (90 mg par jour), for preventing atherothrombotic events, were co-incubated with human normal microvascular endothelial cells at a 200:1 ratio for 24 hrs. Cell culture supernatant was collected and TSLP content was measured using a dedicated commercial ELISA kit.
# [6] = test system: human dermal microvascular endothelial cells (HDMEC); test: Platelet-induced TSLP production in platelet/EC co-culture with blocking antibodies; format: cell-based; settings: ADP-activated platelets
# Experimental: (§1) (A) 70000 HDMEC were cultured for 24 hrs in 24-well culture plate in MV-2 complete medium along with increasing amount of purified non-activated platelets (white bars) or adenosine diphosphate-activated platelets (black bars) (from 10 to 200 platelets for 1 HDMEC). […] (B) HDMEC were stimulated with ADP-activated platelets with or without anti-IL1β blocking antibody. Condition “platelet-” is a comparison without platelets. […] (C) HDMEC were stimulated with increasing doses of serotonin (from 0 to 90 ng/ml). A Wilcoxon test was used. (*p=0.013). (D) HDMEC were stimulated with ADP-activated platelets (ratio HDMEC:platelets=1:200) with or without blocking anti-IL1β with or without 5HT-receptors (5HTR2a and 5HTR2b) blocking antibodies. […] Supernatants were harvested and TSLP content was measured using dedicated ELISA. Results are mean and SEM from 3 independent experiments.
# (§2) TSLP levels in cell culture supernatants or serum was quantified using an ELISA kit from eBiosciences following the manufacturer's instruction.
# (§3) Human dermal microvascular EC were cultured in complete MV2 growth medium in a 96 well-plates with flat bottom (20000 cells per well in 200 μl) and allowed to stand overnight before adding different reagents (IL-1β, IL-4, IL-13, TNF-α, IFN-γ, LPS, 5HT or Tryptase) or platelets ADP-activated or not for 24 h at 37° C. […]
# [7] = target: P2Y12 receptor (Homo sapiens, UniProt Q9H244); settings: cited from earlier work
# Sequence of P2Y12 receptor (Q9H244 whole entry): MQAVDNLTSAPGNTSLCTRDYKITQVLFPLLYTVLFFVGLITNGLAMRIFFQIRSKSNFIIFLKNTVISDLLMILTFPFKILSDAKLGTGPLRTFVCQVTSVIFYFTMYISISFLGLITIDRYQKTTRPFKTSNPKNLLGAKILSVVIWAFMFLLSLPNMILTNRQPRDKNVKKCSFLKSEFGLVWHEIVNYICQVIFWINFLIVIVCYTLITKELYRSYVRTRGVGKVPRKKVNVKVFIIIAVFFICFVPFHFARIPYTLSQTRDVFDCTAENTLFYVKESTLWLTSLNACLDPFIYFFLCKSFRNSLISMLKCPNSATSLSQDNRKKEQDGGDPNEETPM
# [8] = test system: human dermal fibroblasts; test: Pro-fibrotic mRNA profile of activated human dermal fibroblasts (RT-qPCR); format: cell-based; settings: for MMP-1 mRNA expression / collagen1A1 mRNA / collagen/collagenase ratio (COL1A1 on MMP-1 mRNA): HD dermal fibroblasts; for MMP-1 mRNA expression / collagen1A1 mRNA / collagen/collagenase ratio (COL1A1 on MMP-1 mRNA) / MCP-1 mRNA expression: 48 h; for MCP-1 mRNA expression: human dermal fibroblasts
# Experimental: Human dermal fibroblasts were isolated from healthy skin and incubated 48 h with DMEM, IL1β, recombinant TSLP or TGFβ1. (A) Quantification of Col1A1 mRNA from activated fibroblasts using RT-qPCR from 3 different healthy donors was expressed in ΔΔCT with DMEM as the baseline condition. (B) Quantification of MMP-1 mRNA from activated fibroblasts using RTqPCR, results of 3 different healthy donors. (C) Ratio of COL1A1 on MMP-1 (collagenase) mRNA from activated normal fibroblasts using RT-qPCR, results of 3 different healthy donors (left panel) and 3 SSc patients (right panel). Among SSc patients, two patients were dcSSc and fibroblasts came from TSLP+ fibrotic skin (patients #1 and 2), the other was a IcSS and fibroblasts came from TSLP-low fibrotic skin (patient #3). (D) Quantification of MCP-1 from activated normal fibroblasts using RT-qPCR, results of 3 different donors. Kruskal Wallis test was used to compare the mean of mRNA expression levels. *P<0.05.
# Fibroblasts were obtained from […] skin biopsy samples from 3 healthy donors as described elsewhere (Truchetet M E, Brembilla N C, Montanari E, et al. Interleukin-17A+ cell counts are increased in systemic sclerosis skin and their number is inversely correlated with the extent of skin involvement. Arthritis Rheum 2013; 65:1347-1356 ([24])).
# Total RNA was isolated from trypsinized fibroblasts with the NucleoSpin RNA II extraction system (Macherey-Nagel, Duren, Germany) and cDNA synthesized from […] of total RNA using random hexamers and Superscript III reverse transcriptase (Invitrogen, Carlsbad, Calif.) according to manufacturer's instructions. Gene expression was quantified using SYBR green performed on a SDS 7900 HT instrument (Applied Biosystems). Specific primer pairs for each gene described in supplementary material (Datta A, Alexander R, Sulikowski M G, et al. Evidence for a functional thymic stromal lymphopoietin signaling axis in fibrotic lung disease. J Immunol 2013; 191:4867-4879 ([25]); Brembilla N C, Montanari E, Truchetet M E, et al. Th17 cells favor inflammatory responses while inhibiting type I collagen deposition by dermal fibroblasts: differential effects in healthy and systemic sclerosis fibroblasts. Arthritis Res Ther 2013; 15:R151 ([26]); Yoda A, Yoda Y, Chiaretti S, et al. Functional screening identifies CRLF2 in precursor B-cell acute lymphoblastic leukemia. Proc Natl Acad Sci USA 2010; 107:252-257 ([27]); Le Q T, Gomez G, Zhao W, et al. Processing of human protryptase in mast cells involves cathepsins L, B, and C. J Immunol 2011; 187:1912-1918 ([28])). Each reaction was performed in triplicates. […] Oligonucleotides were obtained from Sigma-Aldrich. Differences were calculated with the threshold cycle (Ct) and the comparative Ct method for relative quantification.
# [9] = test system: human dermal microvascular endothelial cells (HDMEC); test: TSLP production by human dermal microvascular EC stimulated with cytokines/reagents (ELISA, RTqPCR); format: cell-based
# Experimental: FIG. 4: IL1β-stimulated human dermal microvascular endothelial cells (HDMEC) produce TSLP. Normal HDMEC were purified from normal skin (plastic surgery) and stimulated 24 hrs with (A) cytokines potentially involved in SSc and the TLR4 agonist LPS or (B) increasing amount of IL1β (from 10 to 50 ng/ml) in complete MV-2 medium (M). Supernatants were harvested and TSLP content was measured by dedicated ELISA from eBioscience. Mean and SD from 3 (A) and 6 (B) independent experiments. (C) Quantification of TSLP mRNA from IL1β (50 ng/mL) activated HDMEC using RTqPCR, one representative experiment out of 3. *P<0.05 and ***P=0.0004 using Kruskal Wallis test.
# as §1, §2, §3
molecule,measurement,setting,value
CC(=O)Oc1ccccc1C(=O)O [acetylsalicylic acid],endothelial TSLP production with acetylsalicylic acid-treated platelets,[1],not inhibited
same,endothelial TSLP production with acetylsalicylic acid-treated platelets,[1]; listed as aspirin,not observed
COC(=O)[C@H](c1ccccc1Cl)N1CCc2sccc2C1 [clopidogrel],fibrosis,[2],reduces fibrosis
same,markers of endothelial function and new digital ulcers,[3],may worsen markers of endothelial function and associate with development of new digital ulcers
same,dermal thickness,[4]; clopidogrel 25 mg/kg/d per os from 15 days before bleomycin 30 μg/mice s.c.,reduces the dermal thickness
same,skin fibrotic effect of Bleomycin,[4]; clopidogrel pre-treatment 25 mg/kg/d per os,significantly reduces
same,development of digital ulcers,[4]; preventive treatment of mice before the establishment of fibrosis,not associated with development of digital ulcers
same,TSLP production by endothelial cells induced by platelets of treated patients,[5],failed to induce TSLP production; also recorded: can block the pro-fibrotic TSLP molecule expression
canakinumab: monoclonal antibody blocking IL-1β,platelet-induced TSLP production,"[6]; FIG. 5B, blocking antibody 10 μg/mL, vs 64.8±3.9 pg/ml without antibody",20.9 ± 3.7 pg/mL
same,TSLP production in platelet/EC co-culture,"[6]; HDMEC:platelets=1:200, FIG. 5D, vs 649±13.8 pg/ml in platelet/EC",335.1 ± 28.5 pg/mL
CCCSc1nc(N[C@@H]2C[C@H]2c2ccc(F)c(F)c2)c2nnn([C@@H]3C[C@H](O)[C@@H](O)[C@H]3O)c2n1 [AR-C124910XX],potency of active metabolite relative to ticagrelor,[7],approximately equipotent
IL1β: pro-inflammatory cytokine used as stimulus,MMP-1 mRNA expression,[8],5.7±1.7 fold increase vs medium condition
same,collagen1A1 mRNA,[8],1.7±0.4 fold increase vs medium condition
same,collagen/collagenase ratio (COL1A1 on MMP-1 mRNA),[8],0.47±0.3 fold increase vs medium condition
same,MCP-1 mRNA expression,[8],52.7±11.2 fold increase vs medium condition
same,TSLP production by dermal microvascular EC (protein),"[9]; IL1β stimulation 24 hrs, vs 7.4±3.5 pg/ml with dermal microvascular EC alone",651.7 ± 95.4 pg/mL
same,TSLP expression at the transcriptomic level,"[9]; RTqPCR, IL1β 50 ng/mL",increase the expression of TSLP
CCCSc1nc(N[C@@H]2C[C@H]2c2ccc(F)c(F)c2)c2nnn([C@@H]3C[C@H](OCCO)C(O)C3O)c2n1 (stereo partly drawn) [ticagrelor],TSLP production by endothelial cells induced by platelets of treated patients,[5],failed to induce TSLP production
rTSLP: recombinant Thymic Stromal Lymphopoietin,MMP-1 mRNA expression,[8],0.59±0.06 fold increase vs medium condition
same,collagen1A1 mRNA,[8],1.5±0.06 fold increase vs medium condition
same,collagen/collagenase ratio (COL1A1 on MMP-1 mRNA),[8],2.6±0.3 fold increase vs medium condition
same,collagen/collagenase ratio in SSc fibroblasts,"[8]; fibroblasts from TSLP+ fibrotic skin of two dcSSc patients, compared to lcSSc patient or normal fibroblasts",lower collagen/collagenase ratio
same,MCP-1 mRNA expression,[8],0.48±0.02 fold increase vs medium condition
"NCCc1c[nH]c2ccc(O)cc12 [serotonin, reference compound]",TSLP production by dermal microvascular EC,"[9]; serotonin at 90 ng/ml, vs 0.75±0.5 pg/ml for EC alone",58.9 ± 11.4 pg/mL
TGFβ: cytokine used as control condition on fibroblasts,MMP-1 mRNA expression,[8],0.56±0.14 fold increase vs medium condition
same,collagen1A1 mRNA,[8],5.35±0.9 fold increase vs medium condition
same,MCP-1 mRNA expression,[8],0.31±0.09 fold increase vs medium condition
